# Experimental data taken from PMC5218480 (PLoS ONE, 2017).
# System: MV-4-11 cells
# Experiment: Gene expression microarray analysis (Affymetrix PrimeView) and GSEA
# Format: cell-based, human
# Parameters: RFU PODN (11730768_x_at) / Fold change /veh PODN (11730768_x_at) / RFU LINC00158 (11744669_a_at) / Fold change /veh LINC00158 (11744669_a_at) / RFU DUSP10 (11751237_a_at) / Fold change /veh DUSP10 (11751237_a_at) / RFU ID3 (11757404_x_at) / Fold change /veh ID3 (11757404_x_at) / RFU PLEKHG5 (11737974_s_at) / Fold change /veh PLEKHG5 (11737974_s_at) / RFU LRRC4B (11730491_at) / Fold change /veh LRRC4B (11730491_at) / RFU GIMAP4 (11747438_a_at) / Fold change /veh GIMAP4 (11747438_a_at) / RFU KRT8 (11758183_x_at) / Fold change /veh KRT8 (11758183_x_at) / RFU CNN1 (11734310_a_at) / Fold change /veh CNN1 (11734310_a_at) / RFU VPS37D (11726825_at) / Fold change /veh VPS37D (11726825_at) / RFU C10orf10 (11716522_x_at) / Fold change /veh C10orf10 (11716522_x_at) / RFU KIR2DL2 /// KIR2DL4 /// KIR2DL5A /// KIR2DL5B /// KIR2DS1 /// KIR2DS2 /// KIR2DS3 /// KIR2DS4 /// KIR3DL3 /// KIR3DL3 /// KIR3DS1 (11738374_at) / Fold change /veh KIR2DL2 /// KIR2DL4 /// KIR2DL5A /// KIR2DL5B /// KIR2DS1 /// KIR2DS2 /// KIR2DS3 /// KIR2DS4 /// KIR3DL3 /// KIR3DL3 /// KIR3DS1 (11738374_at) / RFU C1QL1 (11718748_at) / Fold change /veh C1QL1 (11718748_at) / RFU TMPRSS4 (11747572_a_at) / Fold change /veh TMPRSS4 (11747572_a_at) / RFU HAMP (11756126_x_at) / Fold change /veh HAMP (11756126_x_at) / RFU RNFT2 (11725882_a_at) / Fold change /veh RNFT2 (11725882_a_at) / RFU NR4A2 (11747474_a_at) / Fold change /veh NR4A2 (11747474_a_at) / RFU ABCC12 (11746883_a_at) / Fold change /veh ABCC12 (11746883_a_at) / RFU TMEM136 (11760407_x_at) / Fold change /veh TMEM136 (11760407_x_at) / RFU CLDN22 /// WWC2 (11732394_at) / Fold change /veh CLDN22 /// WWC2 (11732394_at) / RFU HLA-DPB1 (11760878_x_at) / Fold change /veh HLA-DPB1 (11760878_x_at) / RFU SPINT1 (11716480_a_at) / Fold change /veh SPINT1 (11716480_a_at) / RFU GAP43 (11754022_s_at) / Fold change /veh GAP43 (11754022_s_at) / RFU A4GNT (11735810_at) / Fold change /veh A4GNT (11735810_at) / RFU PRB3 (11715151_x_at) / Fold change /veh PRB3 (11715151_x_at) / RFU TUBB4B (11761932_at) / Fold change /veh TUBB4B (11761932_at) / RFU CAPN14 (11732068_a_at) / Fold change /veh CAPN14 (11732068_a_at) / RFU TMCC2 (11721928_a_at) / Fold change /veh TMCC2 (11721928_a_at) / RFU IRGQ (11745062_a_at) / Fold change /veh IRGQ (11745062_a_at) / RFU FAM174B (11720279_a_at) / Fold change /veh FAM174B (11720279_a_at) / RFU TMPRSS4 (11748680_a_at) / Fold change /veh TMPRSS4 (11748680_a_at) / RFU FAM212B (11763350_a_at) / Fold change /veh FAM212B (11763350_a_at) / RFU PLEKHG5 (11743358_a_at) / Fold change /veh PLEKHG5 (11743358_a_at) / RFU ZSCAN30 (11745921_a_at) / Fold change /veh ZSCAN30 (11745921_a_at) / RFU CMKLR1 (11741424_a_at) / Fold change /veh CMKLR1 (11741424_a_at) / RFU LOC101060620 /// MAPK8IP1 (11723275_at) / Fold change /veh LOC101060620 /// MAPK8IP1 (11723275_at) / RFU SPTSSB (11747773_x_at) / Fold change /veh SPTSSB (11747773_x_at) / RFU PRSS12 (11739890_at) / Fold change /veh PRSS12 (11739890_at) / RFU BIN1 (11741810_x_at) / Fold change /veh BIN1 (11741810_x_at) / RFU WNT11 (11732464_a_at) / Fold change /veh WNT11 (11732464_a_at) / RFU C10orf10 (11716521_a_at) / Fold change /veh C10orf10 (11716521_a_at) / RFU C5orf56 (11738089_at) / Fold change /veh C5orf56 (11738089_at) / RFU CYB561 (11721691_x_at) / Fold change /veh CYB561 (11721691_x_at) / RFU ANKRD19P (11752326_a_at) / Fold change /veh ANKRD19P (11752326_a_at) / RFU OR2T12 /// OR2T33 /// OR2T8 (11738714_s_at) / Fold change /veh OR2T12 /// OR2T33 /// OR2T8 (11738714_s_at) / RFU VCAN (11748164_a_at) / Fold change /veh VCAN (11748164_a_at) / RFU JSRP1 (11732532_at) / Fold change /veh JSRP1 (11732532_at) / RFU KRTAP10-11 (11738290_x_at) / Fold change /veh KRTAP10-11 (11738290_x_at) / RFU MYO3A (11730013_a_at) / Fold change /veh MYO3A (11730013_a_at) / RFU EBF3 (11725865_a_at) / Fold change /veh EBF3 (11725865_a_at) / RFU CAMK2N1 (11719241_x_at) / Fold change /veh CAMK2N1 (11719241_x_at) / RFU C5orf56 (11738088_a_at) / Fold change /veh C5orf56 (11738088_a_at) / RFU OLFML3 (11715873_a_at) / Fold change /veh OLFML3 (11715873_a_at) / RFU LOC100653217 /// NTM (11731650_a_at) / Fold change /veh LOC100653217 /// NTM (11731650_a_at) / RFU MAPK11 (11762145_a_at) / Fold change /veh MAPK11 (11762145_a_at) / RFU FIZ1 (11724087_x_at) / Fold change /veh FIZ1 (11724087_x_at) / RFU OASL (11726364_x_at) / Fold change /veh OASL (11726364_x_at) / RFU SOX15 (11748057_x_at) / Fold change /veh SOX15 (11748057_x_at) / RFU CD79A (11719716_a_at) / Fold change /veh CD79A (11719716_a_at) / RFU HIST1H1D (11736915_at) / Fold change /veh HIST1H1D (11736915_at) / RFU CASKIN2 (11723855_a_at) / Fold change /veh CASKIN2 (11723855_a_at) / RFU LOC730098 (11760151_x_at) / Fold change /veh LOC730098 (11760151_x_at) / RFU OR4N2 (11742367_at) / Fold change /veh OR4N2 (11742367_at) / RFU PRRT2 (11749266_a_at) / Fold change /veh PRRT2 (11749266_a_at) / RFU SNX32 (11753110_a_at) / Fold change /veh SNX32 (11753110_a_at) / RFU CDHR5 (11726645_a_at) / Fold change /veh CDHR5 (11726645_a_at) / RFU RCAN1 (11760418_a_at) / Fold change /veh RCAN1 (11760418_a_at) / RFU FAM167A (11723789_a_at) / Fold change /veh FAM167A (11723789_a_at) / RFU FAM26E (11764081_at) / Fold change /veh FAM26E (11764081_at) / RFU ISYNA1 (11749810_s_at) / Fold change /veh ISYNA1 (11749810_s_at) / RFU ACY1 (11761880_at) / Fold change /veh ACY1 (11761880_at) / RFU 11764098_at / Fold change /veh 11764098_at / RFU SAMD14 (11745864_x_at) / Fold change /veh SAMD14 (11745864_x_at) / RFU NPB (11741838_a_at) / Fold change /veh NPB (11741838_a_at) / RFU TMPRSS6 (11731388_a_at) / Fold change /veh TMPRSS6 (11731388_a_at) / RFU KRTAP10-2 (11738614_at) / Fold change /veh KRTAP10-2 (11738614_at) / RFU ARHGAP8 /// PRR5-ARHGAP8 (11727945_x_at) / Fold change /veh ARHGAP8 /// PRR5-ARHGAP8 (11727945_x_at) / RFU KRTAP5-7 /// NADSYN1 (11734609_at) / Fold change /veh KRTAP5-7 /// NADSYN1 (11734609_at) / RFU RASL12 (11751679_a_at) / Fold change /veh RASL12 (11751679_a_at) / RFU CDKN2B (11736163_a_at) / Fold change /veh CDKN2B (11736163_a_at) / RFU PRF1 (11729649_at) / Fold change /veh PRF1 (11729649_at) / RFU, ZNF638 /// ZNF638-IT1 / Fold change vs veh, ZNF638 /// ZNF638-IT1 / RFU, PANK3 / Fold change vs veh, PANK3 / RFU, SH3YL1 / Fold change vs veh, SH3YL1 / RFU, ZEB2 / Fold change vs veh, ZEB2 / RFU, NRIP1 / Fold change vs veh, NRIP1 / RFU, PTTG1IP / Fold change vs veh, PTTG1IP / RFU, CAPN2 / Fold change vs veh, CAPN2 / RFU, MED14 / Fold change vs veh, MED14 / RFU, SNORA58 / Fold change vs veh, SNORA58 / RFU, C1orf63 / Fold change vs veh, C1orf63 / RFU, LRRFIP1 / Fold change vs veh, LRRFIP1 / RFU, NDUFAF7 / Fold change vs veh, NDUFAF7 / RFU, SLC12A2 / Fold change vs veh, SLC12A2 / RFU, IBTK / Fold change vs veh, IBTK / RFU, ESF1 / Fold change vs veh, ESF1 / Fold change vs veh, TMEM50B / RFU, TAOK1 / Fold change vs veh, TAOK1 / RFU, ACBD3 / Fold change vs veh, ACBD3 / RFU, TMA16 / Fold change vs veh, TMA16 / RFU, RWDD3 / Fold change vs veh, RWDD3 / RFU, BCAT1 / Fold change vs veh, BCAT1 / RFU, EDEM3 / Fold change vs veh, EDEM3 / RFU, TMEM33 / Fold change vs veh, TMEM33 / RFU, WDR75 / Fold change vs veh, WDR75 / RFU, AHCTF1 / Fold change vs veh, AHCTF1 / RFU, TFRC / Fold change vs veh, TFRC / RFU, ZDHHC17 / Fold change vs veh, ZDHHC17 / RFU, NOM1 / Fold change vs veh, NOM1 / RFU, ARL8B / Fold change vs veh, ARL8B / RFU, ZBTB11 / Fold change vs veh, ZBTB11 / RFU, TAMM41 / Fold change vs veh, TAMM41 / RFU, KIAA1704 /// LOC100996395 / Fold change vs veh, KIAA1704 /// LOC100996395 / RFU, ING1 / Fold change vs veh, ING1 / RFU, TRMT61B / Fold change vs veh, TRMT61B / RFU, FUBP3 / Fold change vs veh, FUBP3 / RFU, TP53 / Fold change vs veh, TP53 / RFU, TNKS2 / Fold change vs veh, TNKS2 / RFU, ZFP14 / Fold change vs veh, ZFP14 / RFU, ACTR2 / Fold change vs veh, ACTR2 / RFU, PPP3R1 / Fold change vs veh, PPP3R1 / RFU, PIK3R1 / Fold change vs veh, PIK3R1 / RFU, HNRNPA1 / Fold change vs veh, HNRNPA1 / RFU, RNF170 / Fold change vs veh, RNF170 / RFU, ZNF28 / Fold change vs veh, ZNF28 / RFU, RNGTT / Fold change vs veh, RNGTT / RFU, OGT / Fold change vs veh, OGT / RFU, BRD1 / Fold change vs veh, BRD1 / RFU, MARS / Fold change vs veh, MARS / RFU, ZNF655 / Fold change vs veh, ZNF655 / RFU, FAHD1 / Fold change vs veh, FAHD1 / RFU, BDP1 / Fold change vs veh, BDP1 / RFU, LRRCC1 / Fold change vs veh, LRRCC1 / RFU, ARID1A / Fold change vs veh, ARID1A / RFU, ZNF146 / Fold change vs veh, ZNF146 / RFU, ZNF330 / Fold change vs veh, ZNF330 / RFU, GPN3 / Fold change vs veh, GPN3 / RFU, C9orf123 / Fold change vs veh, C9orf123 / RFU, N4BP2L2 / Fold change vs veh, N4BP2L2 / RFU, ARFIP1 / Fold change vs veh, ARFIP1 / RFU, FAM179B / Fold change vs veh, FAM179B / RFU, BCL10 / Fold change vs veh, BCL10 / RFU, UHRF1BP1L / Fold change vs veh, UHRF1BP1L / RFU, BET1 / Fold change vs veh, BET1 / RFU, CNOT2 / Fold change vs veh, CNOT2 / RFU, ZNF268 / Fold change vs veh, ZNF268 / Fold change vs veh, ZNF507 / RFU, DGCR2 / Fold change vs veh, DGCR2 / RFU, WDSUB1 / Fold change vs veh, WDSUB1 / Fold change vs veh, HSP90B1 /// MIR3652 / RFU, ADSS / Fold change vs veh, ADSS / RFU, GK / Fold change vs veh, GK / RFU, ZNF148 / Fold change vs veh, ZNF148 / RFU, TAF9 / Fold change vs veh, TAF9 / RFU, SLC1A5 / Fold change vs veh, SLC1A5 / RFU, SLMO2 / Fold change vs veh, SLMO2 / RFU, ABCC4 / Fold change vs veh, ABCC4 / RFU, LOC101060439 /// RAP1B / Fold change vs veh, LOC101060439 /// RAP1B / RFU, RFX7 / Fold change vs veh, RFX7 / RFU, GTPBP10 / Fold change vs veh, GTPBP10 / RFU, CNEP1R1 / Fold change vs veh, CNEP1R1 / RFU, BIVM-ERCC5 /// ERCC5 / Fold change vs veh, BIVM-ERCC5 /// ERCC5 / RFU, ILF3 / Fold change vs veh, ILF3 / RFU 11762660_at / Fold change /veh 11762660_at / RFU VCAN (11757783_s_at) / Fold change /veh VCAN (11757783_s_at) / RFU DDX43 (11728927_at) / Fold change /veh DDX43 (11728927_at) / RFU KRT8 (11758188_x_at) / Fold change /veh KRT8 (11758188_x_at) / RFU NKD1 (11759106_at) / Fold change /veh NKD1 (11759106_at) / RFU SRD5A1 (11742802_a_at) / Fold change /veh SRD5A1 (11742802_a_at) / RFU TPSAB1 /// TPSB2 (11721975_s_at) / Fold change /veh TPSAB1 /// TPSB2 (11721975_s_at) / RFU GSTM3 (11746129_a_at) / Fold change /veh GSTM3 (11746129_a_at) / RFU IL23R (11737362_x_at) / Fold change /veh IL23R (11737362_x_at) / RFU TMEM51 (11727254_a_at) / Fold change /veh TMEM51 (11727254_a_at) / RFU PIWIL2 (11732686_x_at) / Fold change /veh PIWIL2 (11732686_x_at) / RFU ORM1 (11744905_x_at) / Fold change /veh ORM1 (11744905_x_at) / RFU CCDC152 (11743942_at) / Fold change /veh CCDC152 (11743942_at) / RFU ECM1 (11717891_a_at) / Fold change /veh ECM1 (11717891_a_at) / RFU IL23R (11748794_a_at) / Fold change /veh IL23R (11748794_a_at) / RFU TNFAIP8L3 (11732012_x_at) / Fold change /veh TNFAIP8L3 (11732012_x_at) / RFU MBOAT4 (11741988_at) / Fold change /veh MBOAT4 (11741988_at) / RFU 11764193_at / Fold change /veh 11764193_at / RFU TMEM53 (11763286_at) / Fold change /veh TMEM53 (11763286_at) / RFU MAGEB2 (11727129_at) / Fold change /veh MAGEB2 (11727129_at) / RFU TMEM200A (11744735_a_at) / Fold change /veh TMEM200A (11744735_a_at) / RFU CCDC152 (11751479_a_at) / Fold change /veh CCDC152 (11751479_a_at) / RFU FAM211A (11726209_a_at) / Fold change /veh FAM211A (11726209_a_at) / RFU RGS16 (11746705_a_at) / Fold change /veh RGS16 (11746705_a_at) / RFU VCAN (11755009_s_at) / Fold change /veh VCAN (11755009_s_at) / RFU RHOB (11743442_s_at) / Fold change /veh RHOB (11743442_s_at) / RFU RGS16 (11720943_a_at) / Fold change /veh RGS16 (11720943_a_at) / RFU RGS16 (11720944_at) / Fold change /veh RGS16 (11720944_at) / RFU, VPS4B / Fold change vs veh, VPS4B / RFU, CREB1 / Fold change vs veh, CREB1 / RFU, DNAJC13 / Fold change vs veh, DNAJC13 / RFU, GNAQ / Fold change vs veh, GNAQ / RFU, CDK5R1 / Fold change vs veh, CDK5R1 / RFU, ZRANB3 / Fold change vs veh, ZRANB3 / RFU, CUL4A / Fold change vs veh, CUL4A / RFU, CCNY / Fold change vs veh, CCNY / RFU, UFL1 / Fold change vs veh, UFL1 / RFU, COG3 / Fold change vs veh, COG3 / RFU, DIAPH2 / Fold change vs veh, DIAPH2 / RFU, SKA2 / Fold change vs veh, SKA2 / RFU, AFF3 / Fold change vs veh, AFF3 / RFU, LMF1 / Fold change vs veh, LMF1 / RFU, IPO11 / Fold change vs veh, IPO11 / RFU, DFFB / Fold change vs veh, DFFB / RFU, FOXP1 / Fold change vs veh, FOXP1 / RFU, CARD8 / Fold change vs veh, CARD8 / RFU, STRN3 / Fold change vs veh, STRN3 / RFU, ADK / Fold change vs veh, ADK / RFU, RASSF2 / Fold change vs veh, RASSF2 / RFU, WIPF1 / Fold change vs veh, WIPF1 / RFU, LARP1B / Fold change vs veh, LARP1B / RFU, RASA1 / Fold change vs veh, RASA1 / RFU, RB1 / Fold change vs veh, RB1 / RFU, PPFIA1 / Fold change vs veh, PPFIA1 / RFU, MAT2A / Fold change vs veh, MAT2A / RFU, CCT5 / Fold change vs veh, CCT5 / RFU, WDR92 / Fold change vs veh, WDR92 / RFU, CUX1 / Fold change vs veh, CUX1 / RFU, TTC7A / Fold change vs veh, TTC7A / RFU, TMEM135 / Fold change vs veh, TMEM135 / RFU, DEPTOR / Fold change vs veh, DEPTOR / RFU, CPM / Fold change vs veh, CPM / RFU, DNAJB6 / Fold change vs veh, DNAJB6 / RFU, CACNA2D3 / Fold change vs veh, CACNA2D3 / RFU, DTX4 / Fold change vs veh, DTX4 / RFU, TFCP2 / Fold change vs veh, TFCP2 / RFU, GMCL1 /// GMCL1P1 / Fold change vs veh, GMCL1 /// GMCL1P1 / RFU, AEBP2 / Fold change vs veh, AEBP2 / RFU, SNHG1 /// SNORD22 /// SNORD25 /// SNORD26 /// SNORD27 /// SNORD28 /// SNORD29 /// SNORD31 / Fold change vs veh, SNHG1 /// SNORD22 /// SNORD25 /// SNORD26 /// SNORD27 /// SNORD28 /// SNORD29 /// SNORD31 / Fold change (Aza/veh), C12orf56 (ProbeSet 11735607_a_at) / Fold change (ACY-1035/veh), C12orf56 (ProbeSet 11735607_a_at) / Fold change (Aza/veh), FGFR1OP (ProbeSet 11751329_s_at) / Fold change (ACY-1035/veh), FGFR1OP (ProbeSet 11751329_s_at) / Fold change (Aza/veh), VPS36 (ProbeSet 11739960_a_at) / Fold change (ACY-1035/veh), VPS36 (ProbeSet 11739960_a_at) / RFU SYPL1 (11715823_x_at) / Fold change /veh SYPL1 (11715823_x_at) / RFU IGFBP7 (11715501_s_at) / Fold change /veh IGFBP7 (11715501_s_at) / RFU REEP3 (11722064_at) / Fold change /veh REEP3 (11722064_at) / RFU IGLL1 (11728026_x_at) / Fold change /veh IGLL1 (11728026_x_at): dose or concentration left out as unconfirmed
# Conditions: MV-4-11 cells, 48 hours
smiles,measurement,value
Nc1ccc(-c2cccs2)cc1NC(=O)c1ccc2c(c1)cc(C1CC1)n2CCN1CCOCC1 [ACY-1035],Fold change /veh SAMD14 (11745864_x_at),1.01
